The record followed here is ChEMBL document CHEMBL1142442, “Synthesis of chimeric tetrapeptide-linked cholic acid derivatives: impending synergistic agents” (Bioorg Med Chem Lett, 2008).

The structures appear in SMILES notation. In brackets after ≈: the same amount, converted by molar mass.

Data set [1] relates to Candida albicans. Description: Antifungal activity at Candida albicans. Format: functional.
The test system of another data set is Cryptococcus neoformans. Description: Antifungal activity at Cryptococcus neoformans. The class given is functional.
Another data set has as its system Benjaminiella poitrasii. Description: Antifungal activity at Benjaminiella poitrasii. The class given is functional.
The next data set has as its system Yarrowia lipolytica. The data set is described as follows: Antifungal activity at Yarrowia lipolytica. Format: functional.
The subject of the next data set is Fusarium oxysporum. Description: Antifungal activity at Fusarium oxysporum. The class given is functional.
Data set [2] concerns Escherichia coli. The data set is described as follows: Antibacterial activity at Escherichia coli. Format: functional.
In another data set the test system is Staphylococcus aureus. Description: Antibacterial activity at Staphylococcus aureus. Format: functional.
Data set [3] concerns Candida albicans. The data set is described as follows: Antifungal activity at Candida albicans assessed as concentration required to lower the MIC of fluconazole from 32 to 1 ug/mL after 48 hrs. Format: functional.
Data set [4] relates to Escherichia coli. The data set is described as follows: Antibacterial activity at Escherichia coli assessed as concentration required to lower the MIC of erythromycin from 64 to 1 ug/mL after 24 hrs. The class given is functional.
Data set [5] relates to MCF7. The data set is described as follows: Antiproliferative activity against human MCF7 cells by MTT assay. The class given is functional, cell-based. (In general: Tetrazolium dyes change colour on reduction, which living cells bring about.)
In data set [6] the test system is HEK293. Description: Antiproliferative activity against HEK293 cells by MTT assay. The class given is cell-based. The settings on record: Homo sapiens.
Data set [7] has as its system MCF7. Description: Antiproliferative activity against human MCF7 cells at upto 80 uM by MTT assay. Format: functional, cell-based.
The subject of data set [8] is HEK293. Description: Antiproliferative activity against HEK293 cells at upto 80 uM by MTT assay. The class given is cell-based. The settings on record: human.

A word on the MIC: it is the smallest concentration in the dilution series that meets the test's criterion for growth inhibition. One may read the IC50 as the concentration needed to halve the response being measured. Lower therefore signals greater potency in that assay. As for `C[C@H](CCCO)[C@H]1CC[C@H]2[C@@H]3[C@H](O)C[C@@H]4C[C@@H](NC(=O)CCNC(=O)CCNC(=O)CCNC(=O)CCNC(=O)OC(C)(C)C)CC[C@]4(C)[C@H]3C[C@H](O)[C@]12C`, the MIC is 128 µg/mL (≈ 165 µM) in the data set on Candida albicans [1]; > 128 µg/mL in the data set on Cryptococcus neoformans; > 128 µg/mL against Benjaminiella poitrasii; > 128 µg/mL against Yarrowia lipolytica; 64 µg/mL (≈ 82.3 µM) with Fusarium oxysporum; > 128 µg/mL in the data set with Escherichia coli [2]. Further, the minimum inhibitory concentration (MIC) in the data set with Staphylococcus aureus was > 128 µg/mL; in the data set on Candida albicans [3], 12 µg/mL; with Escherichia coli [4] it was 20 µg/mL. Also, the IC50 in the data set with MCF7 [5] is > 1000 µM; in the data set with HEK293 [6], 800 µM. In addition, the Activity entry with MCF7 [7] and in the data set with HEK293 [8] was “Non-toxic” throughout.
For `COC(=O)CC[C@@H](C)[C@H]1CC[C@H]2[C@@H]3[C@H](O)C[C@@H]4C[C@@H](NC(=O)CNC(=O)CNC(=O)CNC(=O)CNC(=O)OC(C)(C)C)CC[C@]4(C)[C@H]3C[C@H](O)[C@]12C`, the MIC with Candida albicans [1] is 16 µg/mL (≈ 21.3 µM); against Cryptococcus neoformans it was > 128 µg/mL; with Benjaminiella poitrasii, 64 µg/mL (≈ 85.3 µM); in the data set on Yarrowia lipolytica it was > 128 µg/mL; with Fusarium oxysporum, 64 µg/mL (≈ 85.3 µM); against Escherichia coli [2] it was 96 µg/mL (≈ 128 µM). In addition, the values for the MIC in the data set with Staphylococcus aureus, with Candida albicans [3] and in the data set with Escherichia coli [4] were 32 µg/mL (≈ 42.7 µM), 8 µg/mL and 24 µg/mL, respectively. The IC50 with MCF7 [5] was determined as 300 µM; in the data set with HEK293 [6], 600 µM. The Activity entry in the data set with MCF7 [7] and in the data set with HEK293 [8] was “Non-toxic” each time.
For `C[C@H](CCC(=O)O)[C@H]1CC[C@H]2[C@@H]3[C@H](O)C[C@@H]4C[C@@H](NC(=O)CCNC(=O)CCNC(=O)CCNC(=O)CCN)CC[C@]4(C)[C@H]3C[C@H](O)[C@]12C`, the MIC in the data set on Candida albicans [1] was 32 µg/mL (≈ 46.2 µM); in the data set on Cryptococcus neoformans, > 128 µg/mL; in the data set on Benjaminiella poitrasii, 24 µg/mL (≈ 34.7 µM); against Yarrowia lipolytica, > 128 µg/mL; in the data set on Fusarium oxysporum, 64 µg/mL (≈ 92.5 µM); with Escherichia coli [2], 32 µg/mL (≈ 46.2 µM). Besides, the MIC in the data set on Staphylococcus aureus is > 128 µg/mL; with Candida albicans [3], 1 µg/mL; in the data set on Escherichia coli [4], 4 µg/mL. Besides, the figures for the IC50 with MCF7 [5] and in the data set with HEK293 [6] were 200 µM and > 1000 µM, respectively. In addition, the Activity result in the data set on MCF7 [7] and with HEK293 [8] was “Non-toxic” each time.
